Data: the Kinase Knowledgebase extract (Sharma et al. 2016)

Biological target: EGFR (UniProt P00533)
Experiment: Inhibition of EGFR Kinase Activity

Chain of EGFR (P00533 whole entry, looked up): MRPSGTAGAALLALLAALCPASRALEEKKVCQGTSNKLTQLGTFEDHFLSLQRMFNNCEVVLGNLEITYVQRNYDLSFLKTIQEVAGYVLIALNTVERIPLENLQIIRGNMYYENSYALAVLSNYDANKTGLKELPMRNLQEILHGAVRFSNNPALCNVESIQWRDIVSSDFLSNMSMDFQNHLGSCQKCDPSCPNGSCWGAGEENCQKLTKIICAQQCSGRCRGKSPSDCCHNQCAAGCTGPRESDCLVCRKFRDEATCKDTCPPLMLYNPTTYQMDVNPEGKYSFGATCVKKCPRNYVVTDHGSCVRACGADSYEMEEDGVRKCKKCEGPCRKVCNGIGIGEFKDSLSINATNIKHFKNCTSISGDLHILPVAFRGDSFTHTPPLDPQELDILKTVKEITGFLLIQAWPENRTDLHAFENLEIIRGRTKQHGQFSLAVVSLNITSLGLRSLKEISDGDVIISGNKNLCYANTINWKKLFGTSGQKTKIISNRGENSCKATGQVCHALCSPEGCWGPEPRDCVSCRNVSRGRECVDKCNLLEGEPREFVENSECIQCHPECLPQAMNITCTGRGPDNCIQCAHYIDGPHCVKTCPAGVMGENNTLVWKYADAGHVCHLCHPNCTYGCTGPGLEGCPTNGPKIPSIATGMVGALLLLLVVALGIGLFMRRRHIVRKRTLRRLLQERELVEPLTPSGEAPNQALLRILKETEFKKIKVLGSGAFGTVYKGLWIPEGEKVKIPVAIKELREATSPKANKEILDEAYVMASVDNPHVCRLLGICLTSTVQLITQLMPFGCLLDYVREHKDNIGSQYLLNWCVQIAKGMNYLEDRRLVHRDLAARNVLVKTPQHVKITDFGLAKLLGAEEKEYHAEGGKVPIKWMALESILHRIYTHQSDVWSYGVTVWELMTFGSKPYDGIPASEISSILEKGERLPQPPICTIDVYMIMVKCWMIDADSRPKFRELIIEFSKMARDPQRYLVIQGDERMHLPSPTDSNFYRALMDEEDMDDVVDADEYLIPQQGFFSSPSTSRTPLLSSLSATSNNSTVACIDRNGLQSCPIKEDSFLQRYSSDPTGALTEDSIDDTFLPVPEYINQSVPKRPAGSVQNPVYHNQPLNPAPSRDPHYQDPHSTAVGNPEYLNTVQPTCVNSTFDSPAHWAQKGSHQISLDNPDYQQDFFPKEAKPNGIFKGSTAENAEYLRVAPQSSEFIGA

IC50, < 50 µM:
C=CC(=O)Nc1ccc(Nc2ncnc(Nc3ccc(C(=O)OC)cc3)n2)cc1, C=CC(=O)Nc1cccc(Nc2ncnc(N(C)c3ccc(OCCOC)c(OC)c3)n2)c1, C=CC(=O)Nc1ccc(Nc2ncnc(N(CC)c3ccc(OCCO)cc3)n2)cc1, C=CC(=O)N(CCCN1CCOCC1)c1cccc(Nc2ncnc(N(C)c3ccc4c(cnn4Cc4ccccc4)c3)n2)c1, C=CC(=O)Nc1ccc(Nc2ncnc(Nc3cccc4ccccc34)n2)cc1, C=CC(=O)Nc1ccc(Nc2ncnc(N(CC)C3CC3c3ccc(Cl)cc3)n2)cc1 (stereo not given), C=CCN(c1ccc(OC)c(OCCOC)c1)c1ncnc(Nc2ccc(NC(=O)C=C)cc2)n1, C=CC(=O)Nc1cccc(Nc2ncnc(Nc3ccc(OCc4ccccc4)cc3)n2)c1, C=CC(=O)Nc1ccc(Nc2ncnc(N(CC)c3cccc(CC(=O)OC)c3)n2)cc1, CC#CC(=O)Nc1cc(Nc2ncnc(N(C)c3cccc(Cl)c3)n2)ccc1OCCCN1CCOCC1, C=CCN(c1ncnc(Nc2cccc(NC(=O)C#CC)c2)n1)C1CC1c1ccccc1 (stereo not given), C=CC(=O)Nc1ccc(Nc2ncnc(Nc3ccc4NN(=Cc4c3)Cc5ccccn5)n2)cc1, C=CC(=O)Nc1cc(Nc2ncnc(Nc3ccc4c(cnn4Cc4ccccc4)c3)n2)ccc1OC, C=CC(=O)Nc1cccc(Nc2ncnc(N(CC)n3c(=O)n(C(=O)C(C)(C)C)c4ccccc43)n2)c1, CC#CC(=O)Nc1cccc(Nc2ncnc(N(CC)c3ccc(OCCO)cc3)n2)c1, C=CC(=O)Nc1ccc(Nc2ncnc(Nc3cccc(S(=O)(=O)c4ccc([N+](=O)[O-])cc4)c3)n2)cc1, CC#CC(=O)Nc1cccc(Nc2ncnc(Nc3cc(OC)c(OC)c(OCCN4CCOCC4)c3)n2)c1, C=CC(=O)Nc1ccc(Nc2ncnc(N(CC)c3ccc(OCCC)c(OCCC)c3)n2)cc1, CC#CC(=O)Nc1cccc(Nc2ncnc(N(C)C3CC3c3ccccc3)n2)c1 (stereo not given), C=CCN(c1ccc(OCc2ccccc2)cc1)c1ncnc(Nc2cccc(NC(=O)C#CC)c2)n1, C=CC(=O)Nc1cccc(Nc2ncnc(N(CC)c3cc(Cl)cc4ccccc34)n2)c1, CC#CC(=O)Nc1cccc(Nc2ncnc(Nn3c(=O)n(C(=O)C(C)(C)C)c4ccccc43)n2)c1, C=CC(=O)Nc1cccc(Nc2ncnc(Nc3ccc(OCCO)cc3)n2)c1, C#CCC(=O)Nc1cccc(Nc2ncnc(NN3CCCc4ccc(Cl)cc43)n2)c1, C=CCN(c1ncnc(Nc2cccc(NC(=O)C#CC)c2)n1)n1c(=O)[nH]c2ccccc21, C=CC(=O)Nc1cccc(Nc2ncnc(Nc3ccc(OCc4cccc(F)c4)c(Cl)c3)n2)c1, C=CC(=O)Nc1cc(Nc2ncnc(Nc3ccc4c(ccn4Cc4ccccc4)c3)n2)ccc1OCCCN1CCOCC1, C=CC(=O)Nc1ccc(Nc2ncnc(N(C)c3cc(Cl)ccc3C)n2)cc1, CC#CC(=O)Nc1cccc(Nc2ncnc(Nc3cccc4ccccc34)n2)c1, C=CC(=O)Nc1cccc(Nc2ncnc(Nc3ccc(OCc4ccc(F)c(F)c4)c(F)c3)n2)c1, C=CC(=O)Nc1ccc(Nc2ncnc(N(CC)c3ccc(OC)c(OCCOC)c3)n2)cc1, C=CC(=O)Nc1cccc(Nc2ncnc(Nc3ccc(OCCOC)c(OC)c3)n2)c1, C=CC(=O)Nc1ccc(Nc2ncnc(Nc3cc(OC)c(OC)c(OCCN4CCOCC4)c3)n2)cc1, C=CC(=O)Nc1ccc(Nc2ncnc(N(CC)c3cccc(C)c3)n2)cc1, C=CCN(c1ccc(OCc2ccccc2)cc1)c1ncnc(Nc2cccc(NC(=O)C=C)c2)n1, CC#CC(=O)Nc1cccc(Nc2ncnc(N(CC)c3cccc(S(=O)(=O)c4ccc([N+](=O)[O-])cc4)c3)n2)c1, CC#CC(=O)Nc1cccc(Nc2ncnc(N(C)n3c(=O)n(C(=O)C(C)(C)C)c4ccccc43)n2)c1, C=CC(=O)Nc1cccc(Nc2ncnc(N(C)c3ccc(OCCO)cc3)n2)c1, C=CCN(c1cccc(C)c1)c1ncnc(Nc2cccc(NC(=O)C=C)c2)n1, C=CC(=O)Nc1ccc(Nc2ncnc(N(C)c3cccc(S(=O)(=O)c4ccc([N+](=O)[O-])cc4)c3)n2)cc1, C#CCC(=O)Nc1cccc(Nc2ncnc(NN3CCCc4c(Cl)cccc43)n2)c1, CC#CC(=O)Nc1cc(Nc2ncnc(N(C)c3ccc4c(ccn4Cc4ccccc4)c3)n2)ccc1OCCCC1CCN(C)CC1, C=CC(=O)Nc1cc(Nc2ncnc(N(C)c3ccc4c(cnn4Cc4ccccc4)c3)n2)ccc1OCCCN1CCOCC1, C=CC(=O)Nc1cccc(Nc2ncnc(N(CC)c3cccc(C(N)=O)c3)n2)c1, CC#CC(=O)Nc1cc(Nc2ncnc(N(C)c3cccc(Cl)c3)n2)ccc1OCCCC1CCN(C)CC1, C=CC(=O)Nc1cccc(Nc2ncnc(N(CC)c3ccc(F)c(Cl)c3)n2)c1, C=CCN(c1cccc(Cl)c1)c1ncnc(Nc2cccc(NC(=O)C#CC)c2)n1, C=CC(=O)Nc1ccc(Nc2ncnc(Nn3c(=O)n(C(=O)C(C)(C)C)c4ccccc43)n2)cc1, C=CC(=O)Nc1ccc(Nc2ncnc(N(C)c3cc(Cl)cc4ccccc34)n2)cc1, C=CC(=O)N1CCc2cc(Nc3ncnc(Nc4ccc5c(cnn5Cc5ccccc5)c4)n3)ccc21, C=CC(=O)Nc1ccc(Nc2ncnc(NN3CCCc4c(Cl)cccc43)n2)cc1, C=CC(=O)Nc1cc(Nc2ncnc(N(C)c3ccc4c(ccn4Cc4ccccc4)c3)n2)ccc1OCCCC1CCN(C)CC1, C=CC(=O)Nc1ccc(Nc2ncnc(N(CC)c3ccc(C(=O)OC)cc3)n2)cc1, C=CCN(c1ccc(OCCOC)c(OC)c1)c1ncnc(Nc2ccc(NC(=O)C=C)cc2)n1, C=CCN(c1ncnc(Nc2cccc(NC(=O)C=C)c2)n1)c1cc(Cl)ccc1C, C=CC(=O)N1CCc2ccc(Nc3ncnc(Nc4ccc5c(cnn5Cc5ccccc5)c4)n3)cc21, C=CCN(c1cc(OC)c(OC)c(OCCN2CCOCC2)c1)c1ncnc(Nc2cccc(NC(=O)C=C)c2)n1, C=CC(=O)Nc1ccc(Nc2ncnc(N(C)c3cccc(Cl)c3)n2)cc1, CC#CC(=O)Nc1cccc(Nc2ncnc(Nc3cc(Cl)ccc3C)n2)c1, C=CC(=O)Nc1ccc(Nc2ncnc(N(C)c3ccc4c(cnn4Cc4ccccc4)c3)n2)cc1, C=CC(=O)N(CCCN1CCOCC1)c1cccc(Nc2ncnc(Nc3cccc(Cl)c3)n2)c1, C=CCN(c1ccc(OCCO)cc1)c1ncnc(Nc2cccc(NC(=O)C=C)c2)n1, C=CC(=O)Nc1ccc(Nc2ncnc(N(CC)c3cc(Cl)ccc3C)n2)cc1, C=CCN(c1ncnc(Nc2cccc(NC(=O)C=C)c2)n1)c1cccc2ccccc12, C=CCN(c1ncnc(Nc2ccc(NC(=O)C=C)cc2)n1)N1CNc2ccccc21, C=CC(=O)Nc1cccc(Nc2ncnc(N(C)c3ccc(C(=O)OC)cc3)n2)c1, C=CCN(c1ncnc(Nc2ccc(NC(=O)C=C)cc2)n1)n1c(=O)n(C(=O)C(C)(C)C)c2ccccc21, C=CC(=O)Nc1ccc(Nc2ncnc(NC3CC3c3ccc(Cl)cc3)n2)cc1 (stereo not given), CC#CC(=O)Nc1cc(Nc2ncnc(Nc3ccc4c(cnn4Cc4ccccc4)c3)n2)ccc1OCCCC1CCN(C)CC1, C=CC(=O)Nc1cccc(Nc2ncnc(N(CC)c3cc(Cl)ccc3C)n2)c1, C=CC(=O)N(CCCN1CCOCC1)c1cccc(Nc2ncnc(N(C)c3cccc(Cl)c3)n2)c1, CC#CC(=O)Nc1cccc(Nc2ncnc(N(CC)c3cccc4ccccc34)n2)c1, CC#CC(=O)Nc1cccc(Nc2ncnc(n2)N(C)c3ccc4NN(=Cc4c3)Cc5ccccn5)c1, CC#CC(=O)Nc1cccc(Nc2ncnc(NC3CC3c3ccccc3)n2)c1 (stereo not given), CC#CC(=O)Nc1cccc(Nc2ncnc(N(C)c3ccc(C(=O)OC)cc3)n2)c1, CC#CC(=O)Nc1cccc(Nc2ncnc(n2)N(CC=C)c3ccc4NN(=Cc4c3)Cc5ccccn5)c1, C=CC(=O)Nc1cccc(Nc2ncnc(N(CC)c3cccc(Cl)c3)n2)c1, C=CC(=O)Nc1cccc(Nc2ncnc(N(CC)c3ccc4c(cnn4Cc4ccccc4)c3)n2)c1, C=CCN(c1ccc2c(cnn2Cc2ccccc2)c1)c1ncnc(Nc2ccc(NC(=O)C=C)cc2)n1, C=CCC(=O)Nc1cccc(Nc2ncnc(Nc3cccc(Cl)c3)n2)c1, CC#CC(=O)Nc1cccc(Nc2ncnc(N(C)c3ccc(OCCO)cc3)n2)c1, C=CCN(c1ncnc(Nc2cccc(NC(=O)C=C)c2)n1)C1CC1c1ccccc1 (stereo not given), C=CC(=O)Nc1cccc(Nc2ncnc(Nc3cc(Cl)cc4ccccc34)n2)c1, C=CC(=O)Nc1ccc(Nc2ncnc(N(C)c3ccc(C(=O)OC)cc3)n2)cc1, C=CC(=O)N(CCCN1CCOCC1)c1cccc(Nc2ncnc(Nc3ccc(C(=O)OC)cc3)n2)c1
